Laboratory results published in patent US20100129436A1, “SUBTANCES FOR THE PROTECTION OF CELLS AND/OR TISSUES” (priority 2007, published 2010).
Where two headings read alike, the source gives them in different places.

Test system: endothelial cells, e.g. cells of the endothelium of the human umbilical cord vein
Test: Protection of cultured endothelial cells against cold-induced damage (lactate dehydrogenase release)
Format: cell-based
Settings: cells pre-incubated with test substance, medium replaced, then incubated e.g. 24 hours at 0° C, LDH in supernatant, read-out: EC50 (concentration at which 50% of the release of lactate dehydrogenase is inhibited)
Description: The active substances are synthesised as described below. The action of the substances on cold-induced damage to cells is quantified in a model system. For this purpose, endothelial cells, e.g. cells of the endothelium of the human umbilical cord vein, are cultured. The cells are incubated with various concentrations of the test substances for variable periods of time and then the medium is replaced by fresh medium without any test substance. Next, the cells are incubated e.g. for 24 hours at 0° C. At the end of the incubation period, the lactate dehydrogenase released is determined in the supernatant of the culture vessels by known methods, this concentration being a measure of cell damage. The effectiveness of the individual compounds is determined by the concentration at which 50% of the release of lactate dehydrogenase is inhibited (EC50).

| Structure (SMILES) | EC50 [µM] | EC50 (Homo sapiens, Endothelial cell) [µM] |
| --- | --- | --- |
| CCCCCCCCNC(=O)c1ccc(O)c(O)c1 [3,4-Dihydroxybenzoyl amidooctane] | 2.4 ± 0.2 | – |
| NC[C@H](O)c1ccc(O)c(O)c1 [Noradrenalin, reference compound] | – | 700 |
| CNCC(O)c1ccc(O)c(O)c1 (stereo not shown) [Adrenalin, reference compound] | – | 600 |
| CCCCCCCCCCCC(=O)NCCc1ccc(O)c(O)c1 [N-Dodecanoyl dopamine] | – | 1.2 ± 0.2 |
| NCCc1ccc(O)c(O)c1 [Dopamine, reference compound] | – | 75 |
| Cc1ccc(S(=O)(=O)NCCc2ccc(O)c(O)c2)cc1 [N-(4-Methylphenylsulfonyl) dopamine] | – | 12 ± 1 |
| O=C(CCc1ccccc1)NCCc1ccc(O)c(O)c1 [N-(3-Phenylpropanoyl) dopamine] | – | 9 ± 1 |
| CCCCCCCCNC(=O)c1cc(O)ccc1O [2,5-Dihydroxybenzoyl amidooctane] | 6 ± 1 | – |
| CCCCCCCC(=O)NCCc1ccc(O)c(O)c1 [N-Octanoyl dopamine] | – | 2.1 ± 0.2 |
| CC(CCc1ccc(O)cc1)NCCc1ccc(O)c(O)c1 (stereo not shown) [Dobutamine, reference compound] | – | 5 |
| CCCCCCCCCC(=O)NCCc1ccc(O)c(O)c1 [N-Decanoyl dopamine] | – | 0.9 ± 0.2 |
| CCCCCCCCNC(=O)c1cccc(O)c1O [2,3-Dihydroxybenzoyl amidooctane] | 1.2 ± 0.1 | – |
| CCCCCCCCCCCCCC(=O)NCCc1ccc(O)c(O)c1 [N-Tetradecanoyl dopamine] | – | 1.3 ± 0.2 |
